Test results published in PubChem BioAssay AID1963844 (Molecular Pharmacology Branch, DTP, NCI, 2024).

Tested on: 422866-222-R5-J1-PDC complex spheroid viability
Test: Anticancer human tumor 422866-222-R5-J1-PDC patient-derived pancreatic adenocarcinoma cell line growth inhibition [POLQ]
Conditions: for IC50: curve of first compound; for viability, T/C: stronger effect = lower value
Procedure, shortened: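 Growth inhibition in 3D: complex spheroids (tumor PDC, HUVEC, MSC) treated with POLQ inhibitor combinations; where Cmax unknown, highest tested concentration 10 microM, except SN-38 at 1 microM.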

[1] = second compound 0.0316 µM, first compound 0.0316 µM
[2] = second compound 0.0316 µM, first compound 0.1 µM
[3] = second compound 0.0316 µM, first compound 0.316 µM
[4] = second compound 0.0316 µM, first compound 1 µM
[5] = second compound 0.0316 µM, first compound 3.16 µM
[6] = second compound 0.0316 µM, first compound 10 µM
[7] = second compound 0.1 µM, first compound 0.0316 µM
[8] = second compound 0.1 µM, first compound 0.1 µM
[9] = second compound 0.1 µM, first compound 0.316 µM
[10] = second compound 0.1 µM, first compound 1 µM
[11] = second compound 0.1 µM, first compound 3.16 µM
[12] = second compound 0.1 µM, first compound 10 µM
[13] = second compound 0.316 µM, first compound 0.0316 µM
[14] = second compound 0.316 µM, first compound 0.1 µM
[15] = second compound 0.316 µM, first compound 0.316 µM
[16] = second compound 0.316 µM, first compound 1 µM
[17] = second compound 0.316 µM, first compound 3.16 µM
[18] = second compound 0.316 µM, first compound 10 µM
[19] = second compound 1 µM, first compound 0.0316 µM
[20] = second compound 1 µM, first compound 0.1 µM
[21] = second compound 1 µM, first compound 0.316 µM
[22] = second compound 1 µM, first compound 1 µM
[23] = second compound 1 µM, first compound 3.16 µM
[24] = second compound 1 µM, first compound 10 µM
[25] = second compound 3.16 µM, first compound 0.0316 µM
[26] = second compound 3.16 µM, first compound 0.1 µM
[27] = second compound 3.16 µM, first compound 0.316 µM
[28] = second compound 3.16 µM, first compound 1 µM
[29] = second compound 3.16 µM, first compound 3.16 µM
[30] = second compound 3.16 µM, first compound 10 µM
[31] = second compound 10 µM, first compound 0.0316 µM
[32] = second compound 10 µM, first compound 0.1 µM
[33] = second compound 10 µM, first compound 0.316 µM
[34] = second compound 10 µM, first compound 1 µM
[35] = second compound 10 µM, first compound 3.16 µM
[36] = second compound 10 µM, first compound 10 µM
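Note: spheroids exposed to compounds for one week before readout.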
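Throughout, for viability, T/C: percent of DMSO vehicle wells luminescence so 100% = untreated viability.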

## CNCc1ccc(-c2[nH]c3cc(F)cc4c3c2CCNC4=O)cc1 + Cc1cccc(N(C)C(=O)C2C(O)CCN2c2nc(C)cc(C(F)(F)F)c2C#N)c1
Second compound 0.0316 µM
  IC50: > 10000 nM
Second compound 0.1 µM
  IC50: > 10000 nM
Second compound 0.316 µM
  IC50: > 10000 nM
Second compound 1 µM
  IC50: > 10000 nM
Second compound 3.16 µM
  IC50: > 10000 nM
Second compound 10 µM
  IC50: > 10000 nM
[1]
  viability, T/C: 105%
[2]
  viability, T/C: 88.9%
[3]
  viability, T/C: 91.2%
[4]
  viability, T/C: 99.3%
[5]
  viability, T/C: 89.6%
[6]
  viability, T/C: 85.5%
[7]
  viability, T/C: 94.8%
[8]
  viability, T/C: 86.7%
[9]
  viability, T/C: 85.6%
[10]
  viability, T/C: 86%
[11]
  viability, T/C: 101%
[12]
  viability, T/C: 108%
[13]
  viability, T/C: 88.3%
[14]
  viability, T/C: 97.1%
[15]
  viability, T/C: 88%
[16]
  viability, T/C: 85%
[17]
  viability, T/C: 80.9%
[18]
  viability, T/C: 89.6%
[19]
  viability, T/C: 103%
[20]
  viability, T/C: 85.6%
[21]
  viability, T/C: 93.3%
[22]
  viability, T/C: 85.3%
[23]
  viability, T/C: 86.7%
[24]
  viability, T/C: 89.7%
[25]
  viability, T/C: 96.4%
[26]
  viability, T/C: 83.9%
[27]
  viability, T/C: 87.6%
[28]
  viability, T/C: 80.8%
[29]
  viability, T/C: 79.8%
[30]
  viability, T/C: 87.3%
[31]
  viability, T/C: 102%
[32]
  viability, T/C: 107%
[33]
  viability, T/C: 88%
[34]
  viability, T/C: 76.6%
[35]
  viability, T/C: 85.8%
[36]
  viability, T/C: 67.1%

## COc1cc(C2c3cc4c(cc3C(OC3OC5COC(C)OC5C(O)C3O)C3COC(=O)C23)OCO4)cc(OC)c1O (stereo not drawn) + Cc1cccc(N(C)C(=O)C2C(O)CCN2c2nc(C)cc(C(F)(F)F)c2C#N)c1
Second compound 0.0316 µM
  IC50: 1230 nM
Second compound 0.1 µM
  IC50: 1650 nM
Second compound 0.316 µM
  IC50: 1360 nM
Second compound 1 µM
  IC50: 735 nM
Second compound 3.16 µM
  IC50: 714 nM
Second compound 10 µM
  IC50: 876 nM
[1]
  viability, T/C: 96.8%
[2]
  viability, T/C: 84.3%
[3]
  viability, T/C: 69%
[4]
  viability, T/C: 53.5%
[5]
  viability, T/C: 37.9%
[6]
  viability, T/C: 33.2%
[7]
  viability, T/C: 101%
[8]
  viability, T/C: 92.9%
[9]
  viability, T/C: 63.3%
[10]
  viability, T/C: 58.6%
[11]
  viability, T/C: 44.2%
[12]
  viability, T/C: 31.8%
[13]
  viability, T/C: 110%
[14]
  viability, T/C: 92.7%
[15]
  viability, T/C: 68.8%
[16]
  viability, T/C: 50.6%
[17]
  viability, T/C: 47.7%
[18]
  viability, T/C: 35.8%
[19]
  viability, T/C: 105%
[20]
  viability, T/C: 94.7%
[21]
  viability, T/C: 61.8%
[22]
  viability, T/C: 46.5%
[23]
  viability, T/C: 38.5%
[24]
  viability, T/C: 29.7%
[25]
  viability, T/C: 103%
[26]
  viability, T/C: 88.8%
[27]
  viability, T/C: 56.6%
[28]
  viability, T/C: 49.6%
[29]
  viability, T/C: 40.1%
[30]
  viability, T/C: 33.7%
[31]
  viability, T/C: 91.5%
[32]
  viability, T/C: 77.1%
[33]
  viability, T/C: 56%
[34]
  viability, T/C: 49.9%
[35]
  viability, T/C: 45.1%
[36]
  viability, T/C: 37%

## Nc1ccn(C2OC(CO)C(O)C2(F)F)c(=O)n1 (stereo not drawn) + Cc1cccc(N(C)C(=O)C2C(O)CCN2c2nc(C)cc(C(F)(F)F)c2C#N)c1
Second compound 0.0316 µM
  IC50: 98.9 nM
Second compound 0.1 µM
  IC50: 76.6 nM
Second compound 0.316 µM
  IC50: 82.4 nM
Second compound 1 µM
  IC50: 119 nM
Second compound 3.16 µM
  IC50: 154 nM
Second compound 10 µM
  IC50: 120 nM
[1]
  viability, T/C: 77.9%
[2]
  viability, T/C: 50.4%
[3]
  viability, T/C: 40.4%
[4]
  viability, T/C: 36.1%
[5]
  viability, T/C: 36.1%
[6]
  viability, T/C: 42.9%
[7]
  viability, T/C: 68.8%
[8]
  viability, T/C: 43.2%
[9]
  viability, T/C: 40.5%
[10]
  viability, T/C: 38.6%
[11]
  viability, T/C: 35.5%
[12]
  viability, T/C: 35.4%
[13]
  viability, T/C: 69%
[14]
  viability, T/C: 45.3%
[15]
  viability, T/C: 40.3%
[16]
  viability, T/C: 38.1%
[17]
  viability, T/C: 35%
[18]
  viability, T/C: 34.8%
[19]
  viability, T/C: 68.7%
[20]
  viability, T/C: 51.6%
[21]
  viability, T/C: 41.4%
[22]
  viability, T/C: 37.3%
[23]
  viability, T/C: 38.6%
[24]
  viability, T/C: 40.2%
[25]
  viability, T/C: 83.7%
[26]
  viability, T/C: 54.2%
[27]
  viability, T/C: 41.9%
[28]
  viability, T/C: 43.2%
[29]
  viability, T/C: 37.8%
[30]
  viability, T/C: 38%
[31]
  viability, T/C: 68%
[32]
  viability, T/C: 51.9%
[33]
  viability, T/C: 45.2%
[34]
  viability, T/C: 39.9%
[35]
  viability, T/C: 38.9%
[36]
  viability, T/C: 48.5%

## O=c1[nH]cc(F)c(=O)[nH]1 + Cc1cccc(N(C)C(=O)C2C(O)CCN2c2nc(C)cc(C(F)(F)F)c2C#N)c1
Second compound 0.0316 µM
  IC50: > 10000 nM
Second compound 0.1 µM
  IC50: > 10000 nM
Second compound 0.316 µM
  IC50: > 10000 nM
Second compound 1 µM
  IC50: > 10000 nM
Second compound 3.16 µM
  IC50: > 10000 nM
Second compound 10 µM
  IC50: > 10000 nM
[1]
  viability, T/C: 117%
[2]
  viability, T/C: 98.5%
[3]
  viability, T/C: 102%
[4]
  viability, T/C: 88.2%
[5]
  viability, T/C: 82.1%
[6]
  viability, T/C: 74.9%
[7]
  viability, T/C: 111%
[8]
  viability, T/C: 92.2%
[9]
  viability, T/C: 92.3%
[10]
  viability, T/C: 90.8%
[11]
  viability, T/C: 66.9%
[12]
  viability, T/C: 74.3%
[13]
  viability, T/C: 118%
[14]
  viability, T/C: 109%
[15]
  viability, T/C: 99.9%
[16]
  viability, T/C: 84.3%
[17]
  viability, T/C: 81.1%
[18]
  viability, T/C: 78.2%
[19]
  viability, T/C: 111%
[20]
  viability, T/C: 96.6%
[21]
  viability, T/C: 97.9%
[22]
  viability, T/C: 101%
[23]
  viability, T/C: 84.8%
[24]
  viability, T/C: 83.2%
[25]
  viability, T/C: 107%
[26]
  viability, T/C: 98.6%
[27]
  viability, T/C: 86.3%
[28]
  viability, T/C: 83%
[29]
  viability, T/C: 83.8%
[30]
  viability, T/C: 87.6%
[31]
  viability, T/C: 90.6%
[32]
  viability, T/C: 88.8%
[33]
  viability, T/C: 99.7%
[34]
  viability, T/C: 80.6%
[35]
  viability, T/C: 86.7%
[36]
  viability, T/C: 67.8%
